Test results published in patent publication US7741342B2, “Water-soluble thalidomine derivatives” (priority 2003, dated 2010).
Read-outs that look alike come from different tables or passages of the source.

Key:
[1] = aqueous solution stability; settings: hydrochloride salt
[2] = buffer

aqueous solution stability t1/2 [1] [h] | aqueous solution stability t1/2 [2] [h] | SMILES
> 8 |  | CC(C)[C@H](NC(=O)CN(C)C)C(=O)OCN1C(=O)CCC(N2C(=O)c3ccccc3C2=O)C1=O.Cl (stereo partly drawn) [Example 2, (S)-2-(dimethylaminoacetamido)-3-methyl butyric acid 2-(1-(hydroxymethyl)-2,6-dioxopiperidin-3-yl)isoindoline-1,3-dione ester hydrochloride]
> 8 |  | CC(C)[C@H](NC(=O)CN1CCCCC1)C(=O)OCN1C(=O)CCC(N2C(=O)c3ccccc3C2=O)C1=O.Cl (stereo partly drawn) [Example 3, (S)-2-(1-piperidinylacetamido)-3-methyl butyric acid 2-(1-(hydroxymethyl)-2,6-dioxopiperidin-3-yl)isoindoline-1,3-dione ester hydrochloride]
 | > 8 | CCN(CC)CC(=O)OCN1C(=O)CCC(N2C(=O)c3ccccc3C2=O)C1=O.Cl (centres unmarked) [Example 4, Diethylaminoacetic acid 2-(1-(hydroxymethyl)-2,6-dioxopiperidin-3-yl)isoindoline-1,3-dione ester hydrochloride]
 | > 4 | CN(C)CC(=O)OCN1C(=O)CCC(N2C(=O)c3ccccc3C2=O)C1=O.Cl (centres unmarked) [Example 5, Dimethylaminoacetic acid 2-(1-(hydroxymethyl)-2,6-dioxopiperidin-3-yl)isoindoline-1,3-dione ester hydrochloride salt]

SMILES | aqueous solution stability t1/2 [1] [h] | aqueous solution stability t1/2 [2] [h]
CCN(CC)CC(=O)N[C@H](C(=O)OCN1C(=O)CCC(N2C(=O)c3ccccc3C2=O)C1=O)C(C)C.Cl (stereo partly drawn) [Example 1, (S)-2-(diethylaminoacetamido)-3-methyl butyric acid 2-(1-(hydroxymethyl)-2,6-dioxopiperidin-3-yl)isoindoline-1,3-dione ester hydrochloride] | > 8 | 
